Data from US5039691A, “5-(1-(imidazol)methyl)-3,3-disubstituted-2(3H)furanone derivatives” (Marion Merrell Dow Inc., priority 1990, dated 1991).
Structures can show the parent of a compound that is named as a salt.

What was measured:
Design in all cases: species or system guinea pig
[1] = biological target: T1, muscarinic cholinergic receptors on bladder detrusor muscle (Cavia porcellus, UniProt H0W1Z3); test: Antimuscarinic test: antagonism of carbachol contraction of isolated bladder (Muscarinic Antagonist Activity, Bladder); settings: bladder detrusor strips, carbachol agonist, 35° C.
T1 construct: The peritoneal cavity is opened and the bladder is held lightly at its apex; from tissue; host or cells: guinea pig urinary bladder, detrusor strips without mucosa
Method: ANTIMUSCARINIC TEST PROTOCOL
PREPARATION OF BLADDER FOR TESTING
Male albino guinea pigs are killed by decapitation or cervical dislocation. The peritoneal cavity is opened and the bladder is held lightly at its apex, stretched gently, and fat is lifted with fine forceps and dissected away in situ with blunt-tipped scissors as close to the surface of the bladder as possible. The tissue is placed in a latex-bottomed Petri dish that contains a modified Krebs solution (133 mM NaCl, 1.3 mM […], 16.3 mM NaHCO3, 4.7 mM KCl, 0.6 mM MgSO4.7H2 O, 2.5 mM CaCl2.2H2 O, 7.7 mM dextrose) and cut above the neck. The bladder is collapsed into a flat pouch, which is opened by two lateral incisions and unfolded to give a rectangular sheet of tissue approximately 2 cm long and 1 cm wide. The sheet is gently stretched and pinned to the bottom of the Petri dish. Blunt separation of the mucosa, which is visible as a looser superficial pink layer, is started at one end by carefully inserting the blades of micro dissecting scissors between the mucosa and muscle layers and using gentle spreading of the blades, together with steady traction with forceps to tease the two layers apart. Clean removal of the mucosa is usually possible without any fraying or tearing of the underlying muscle. The removal of the mucosa is considered essential for improving oxygen supply to the preparation and for providing better access on both sides of the thin muscle sheet for administered drugs (Ambache and Zar, J. Physiol. 210:671, 1970). The sheet is trimmed, if necessary, and cut longitudinally into four strips.
The strips are tied off with 5-0 silk suture and are then suspended in 10 mL water-jacketed glass tissue baths containing the Krebs solution maintained at 35° C. and aerated with 95% O2 /5% CO2. The suture connects each tissue to an isometric force-displacement transducer (Grass or Gould) coupled to a physiograph. Each preparation is suspended under a resting tension of 0.5 g and allowed to equilibrate for 36 minutes. During this period, the baths are emptied and filled every 12 minutes with 10 mL of warm Krebs buffer. At the end of this period, each muscle strip is conditioned by adding 10 μM carbachol to the baths. The drug remains in contact with each tissue for 1-2 minutes and then is removed by four rapid rinses of 10 mL of warm Krebs buffer. The preparations are allowed to recover for an additional 12 minutes before being used in experiments.
Carbachol is dissolved in saline to produce 2×10^-2 M stock concentrations. Serial dilutions (1:10) in saline or water are made from the stock solution. Appropriate volumes of these solutions are added cumulatively to the 10 mL tissue baths in order to obtain the desired bath concentrations.
PREPARATION OF TEST COMPOUNDS
Compounds that are soluble in water or saline are dissolved in these solvents to produce 2×10^-2 or 2×10^-3 M stock concentrations. Small amounts of IN HCl, NaOH, or 95% ethanol may be added for those agents that are not soluble in water or saline alone. Serial dilutions (1:10) in saline or water are made from the stock solution. Compounds that are insoluble in aqueous solvents are dissolved in dimethylsulfoxide (DMSO) to produce 4×10^-2 M stock solutions. Serial dilutions (1:10) in water are made from the stock solution. Other solvents may be used when appropriate and will be specifically described in the experimental procedure. Appropriate volumes are then added to the baths in order to obtain the desired bath concentrations.
Appropriate volumes of carbachol solutions are cumulatively added to the 10 mL tissue baths to increase the concentration of carbachol in the bath step-by-step without washing out after each single dose. With each concentration step, the tissue contracts isometrically. The next concentration is added only after the preceding contraction has reached a steady value. […]

[2] = biological target: T2, muscarinic cholinergic receptors on intestinal (ileal-longitudinal) smooth muscle (Cavia porcellus, UniProt H0W1Z3); test: Antimuscarinic test: antagonism of carbachol contraction of isolated ileum (Muscarinic Antagonist Activity, Ileum); settings: carbachol agonist, 37° C.
T2 construct: The longitudinal muscle, with the myenteric plexus attached, is separated from the underlying circular muscle; from tissue; host or cells: guinea pig ileum, longitudinal smooth muscle with myenteric plexus

Male Guinea pigs = test: Primary in vivo bronchodilator assay for muscarinic antagonists (reversal of carbachol bronchoconstriction); settings: cumulative dose causing 50% reversal of carbachol bronchoconstriction; for ED50: Cavia porcellus, iv; for Bronchodilator Activity ED50: i.v.
Method: PRIMARY IN VIVO BRONCHODILATOR ASSAY FOR MUSCARINIC ANTAGONISTS Male Guinea pigs were anesthetized by urethane. The trachea, carotid artery and jugular vein were cannulated. Animals were ventilated with room air at a constant rate and volume. Airway pressure was measured from a side port of the tracheal catheter, and blood pressure and heart rate were monitored as well. After a stable baseline period, an aerosol of carbachol was administered via an ultrasonic nebulizer. Once the bronchoconstrictor response plateaued, test compound was given in increasing i.v. doses to cause graded, cumulative reductions in airway pressure. If more than a 50% reversal of bronchoconstriction occurred, an ED50 value for bronchodilator potency was calculated using a probit analysis. The ED50 was defined as the cumulative i.v. dose that caused a 50% reversal of bronchoconstriction.

T2 sequence (H0W1Z3 1-590): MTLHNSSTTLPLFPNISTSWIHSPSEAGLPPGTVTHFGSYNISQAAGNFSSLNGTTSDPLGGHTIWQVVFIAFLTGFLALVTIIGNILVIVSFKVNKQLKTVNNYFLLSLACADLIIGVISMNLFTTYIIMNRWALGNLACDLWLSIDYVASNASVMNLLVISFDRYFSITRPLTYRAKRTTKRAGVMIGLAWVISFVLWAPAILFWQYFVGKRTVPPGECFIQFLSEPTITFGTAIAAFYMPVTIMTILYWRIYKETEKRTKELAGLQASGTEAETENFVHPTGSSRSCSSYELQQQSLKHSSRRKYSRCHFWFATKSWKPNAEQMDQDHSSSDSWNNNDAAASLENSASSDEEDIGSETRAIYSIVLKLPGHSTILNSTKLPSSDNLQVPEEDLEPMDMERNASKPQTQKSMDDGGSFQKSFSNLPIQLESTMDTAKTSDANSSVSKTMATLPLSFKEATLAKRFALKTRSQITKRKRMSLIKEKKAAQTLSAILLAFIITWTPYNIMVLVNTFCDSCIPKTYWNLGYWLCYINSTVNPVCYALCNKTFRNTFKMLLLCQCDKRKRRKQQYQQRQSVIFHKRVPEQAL
T1 sequence (H0W1Z3 1-590): as above

Kb [1]	Kb [2]	Compound	ED50 (Male Guinea pigs)	Bronchodilator Activity ED50 (Male Guinea pigs)
317 nM	370 nM	5-[1-(3-Methylimidazol)methyl]-4,5-dihydro-5-methyl-3,3-diphenyl-2(3H)furanone hydrate		
	74 nM	Cc1cccn2cc[n+](CC3CC(c4ccccc4)(c4ccccc4)C(=O)O3)c12 (centres unmarked) [1-[(2,3,4,5-Tetrahydro-5-oxo-4,4-diphenyl-2-furanyl)methyl]-8-methylimidazo[1,2-a]pyridinium chloride hydrate]		
	45 nM	O=C1OC(C[n+]2ccn3ccccc32)CC1(c1ccccc1)c1ccccc1 (centres unmarked) [1-[(2,3,4,5-Tetrahydro-5-oxo-4,4-diphenyl-2-furanyl)methyl]imidazo[1,2-a]pyridinium chloride hydrate]		
	71 nM	Cc1n(CC2CC(c3ccccc3)(c3ccccc3)C(=O)O2)cc[n+]1C (centres unmarked) [5-[1-(2,3-Dimethylimidazol)methyl]-4,5-dihydro-3,3-diphenyl-2(3H)furanone bromide]	0.85 mg/kg	
	223 nM	O=C1OC(Cn2ccnc2Cc2ccccc2)CC1(c1ccccc1)c1ccccc1 (centres unmarked) [5-[1-(2-Benzylimidazol)methyl]-4,5-dihydro-3,3-diphenyl-2(3H)furanone hydrochloride]		
	435 nM	COC(=O)c1nccn1CC1CC(c2ccccc2)(c2ccccc2)C(=O)O1 (centres unmarked) [5-[1-(2-Carbomethoxyimidazol)methyl]-4,5-dihydro-3,3-diphenyl-2(3H)furanone hydrochloride]		
	> 1000 nM	CCOCc1nccn1CC1CC(c2ccccc2)(c2ccccc2)C(=O)O1 (centres unmarked) [5-[1-(2-Ethoxymethylimidazol)methyl]-4,5-dihydro-3,3-diphenyl-2(3H)furanone]	> 10 mg/kg	
	86 nM	CCc1nc(C)cn1CC1CC(c2ccccc2)(c2ccccc2)C(=O)O1 (centres unmarked) [5-[1-(2-Ethyl-4-methylimidazol-methyl]-4,5-dihydro-3,3-diphenyl-2(3H)furanone hydrobromide]		
	8.2 nM	CCc1nccn1CC1=CC(c2ccccc2)(c2ccccc2)C(=O)O1 [5-[1-(2-Ethylimidazol)methyl]-3,3-diphenyl-2(3H)furanone]	1.9 mg/kg	
	489 nM	CC(C)Cc1nccn1CC1CC(c2ccccc2)(c2ccccc2)C(=O)O1 (centres unmarked) [5-[1-(2-Isobutylimidazol)methyl]-4,5-dihydro-3,3-diphenyl-2(3H)furanone hydrochloride]	> 10 mg/kg	
		CC(C)c1n(CC2CC(c3ccccc3)(c3ccccc3)C(=O)O2)cc[n+]1C (centres unmarked) [5-[1-(2-Isopropyl-3-methylimidazol)methyl]-4,5-dihydro-3,3-d] [5-[1-(2-Isopropyl-3-methylimidazol)methyl]-4,5-dihydro-3,3-diphenyl-2(3H)furanone iodide]		0.06 mg/kg
2.4 nM	4 nM	CC(C)c1n(CC2CC(c3ccccc3)(c3ccccc3)C(=O)O2)cc[n+]1C (centres unmarked) [5-[1-(2-Isopropyl-3-methylimidazol)methyl]-4,5-dihydro-3,3-diphenyl-2(3H)furanone iodide]		
		CC(C)c1n(CC2CC(c3ccccc3)(c3ccccc3)C(=O)O2)cc[n+]1C (centres unmarked) [5-[1-(2-Isopropyl-3-methylimidazol-methyl]-4,5-dihydro-3,3-d] [5-[1-(2-Isopropyl-3-methylimidazol-methyl]-4,5-dihydro-3,3-diphenyl-2(3H)furanone bromide]		0.007 mg/kg
0.7 nM	2.9 nM	CC(C)c1n(CC2CC(c3ccccc3)(c3ccccc3)C(=O)O2)cc[n+]1C (centres unmarked) [5-[1-(2-Isopropyl-3-methylimidazol-methyl]-4,5-dihydro-3,3-diphenyl-2(3H)furanone bromide]		
	39 nM	COCCc1n(CC2CC(c3ccccc3)(c3ccccc3)C(=O)O2)cc[n+]1C (centres unmarked) [5-[1-(2-Methoxyethyl-3-methylimidazol)methyl]-4,5-dihydro-3,3-diphenyl-2(3H)furanone iodide hydrate]		
	638 nM	COCCc1nccn1CC1CC(c2ccccc2)(c2ccccc2)C(=O)O1 (centres unmarked) [5-[1-(2-Methoxyethylimidazol)methyl]-4,5-dihydro-3,3-diphenyl-2(3H)furanone hydrochloride]	> 10 mg/kg	
	40 nM	COCc1n(CC2CC(c3ccccc3)(c3ccccc3)C(=O)O2)cc[n+]1C (centres unmarked) [5-[1-(2-Methoxymethyl-3-methylimidazol)methyl]-4,5-dihydro-3,3-diphenyl-2(3H)furanone iodide]		
	544 nM	Cc1n(CC2CC(c3ccccc3)(c3ccccc3)C(=O)O2)cc[n+]1Cc1ccccc1 (centres unmarked) [5-[1-(2-Methyl-3-benzylimidazol)methyl]-4,5-dihydro-3,3-diphenyl-2(3H)furanone bromide]		
	5920 nM	O=C1OC(Cn2ccnc2-c2ccccc2)CC1(c1ccccc1)c1ccccc1 (centres unmarked) [5-[1-(2-Phenylimidazol)methyl]-4,5-dihydro-3,3-diphenyl-2(3H)furanone]	> 6 mg/kg	
	113 nM	CCCCc1nccn1CC1CC(c2ccccc2)(c2ccccc2)C(=O)O1 (centres unmarked) [5-[1-(2-n-Butylimidazol)methyl]-4,5-dihydro-3,3-diphenyl-2(3H)furanone]	> 10 mg/kg	
	3.3 nM	CC(C)(C)c1nccn1CC1CC(c2ccccc2)(c2ccccc2)C(=O)O1 (centres unmarked) [5-[1-(2-tert-Butylimidazol)methyl]-4,5-dihydro-3,3-diphenyl-2(3H)furanone hydrochloride]	0.14 mg/kg	
	229 nM	CCn1cc[n+](CC2CC(c3ccccc3)(c3ccccc3)C(=O)O2)c1 (centres unmarked) [5-[1-(Ethylimidazol)methyl]-4,5-dihydro-3,3-diphenyl-2(3H)furanone bromide]		
	67 nM	COCc1nccn1CC1CC(c2ccccc2)(c2ccccc2)C(=O)O1 (centres unmarked) [5-[1-[2-(2-Methoxymethyl)imidazol]methyl]-4,5-dihydro-3,3-diphenyl-2(3H)furanone hydrochloride hydrate]	> 10 mg/kg	
	> 1000 nM	O=C1OC(C[N+]2=C3CCCCCN3CCC2)CC1(c1ccccc1)c1ccccc1 (centres unmarked) [5-[(1,8-Diazabicyclo[5.4.0]undec-7-en-8-yl)methyl]-4,5-dihydro-3,3-diphenyl-2(3H)furanone chloride hydrate]	> 10 mg/kg	
	1280 nM	O=C1OC(Cn2cnc3ccccc32)CC1(c1ccccc1)c1ccccc1 (centres unmarked) [5-[(1-Benzimidazol)methyl]-4,5-dihydro-3,3-diphenyl-2(3H)furanone]		
	373 nM	O=C1OC(Cn2ccnc2)CC1(c1ccccc1)c1ccccc1 (centres unmarked) [5-[(1-Imidazol)methyl]-4,5-dihydro-3,3-diphenyl-2(3H)furanone]		
	33 nM	O.O=C1OC(C[n+]2ccn3c2CCC3)CC1(c1ccccc1)c1ccccc1.[Cl-] (centres unmarked) [6,7-Dihydro-1-[(2,3,4,5-tetrahydro-5-oxo-4,4-diphenyl-2-furanyl)methyl]-5H-pyrrolo[1,2-a]imidazolium chloride hydrate]	0.7 mg/kg	
